Test results as given in patent US20190225650A1, “PEPTIDOMIMETIC MACROCYCLES AND USE THEREOF IN REGULATING HIF1ALPHA” (AILERON THERAPEUTICS, INC., priority 2013, published 2019).
Bridge positions count the residues as written; N and C are the ends. Square brackets hold non-standard residues; d marks the D form. Peptide text beside a SMILES is read from it. S5 = C=CCCC[C@](C)(N)C(=O)O; Nle = CCCC[C@H](N)C(=O)O; Dap = NC[C@H](N)C(=O)O

Test system: HRE-bla ME-180 cells
Test: Reporter gene assay (HRE-bla ME-180 HIF reporter, GeneBLAzer)
Type: cell-based, human
Conditions: for EC50: 24 hour normoxia
Outline: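 A FRET β-lactamase readout of HIF transcription was used. After compound treatment in 0.3% DMSO/media under normoxic conditions, 20 μl of 6× LiveBLAzer-FRET B/G (CCF4-AM) substrate was added. Plates sat 3 hr at room temperature in the dark and were read at 409 Ex/460Em and 409Ex/530Em on a Synergy 2. Inhibition was compared against DMSO vehicle controls, with chetomin as positive control.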

Row | Structure (SMILES) | EC50 [µM] | 18 h Avg % max inhibition at top conc (HIF Rptr-24 hrs normoxia) (μM)
1 | CCCC[C@H](NC(=O)[C@H](CC(C)C)NC(=O)[C@@H](NC(=O)[C@H](CCC(=O)O)NC(=O)[C@H](CCC(=O)O)NC(=O)[C@H](CC(=O)O)NC(=O)[C@@H](NC(=O)[C@H](Cc1ccccc1)NC(C)=O)[C@@H](C)CC)C(C)C)C(=O)N[C@@]1(C)CCCC=CCCC[C@@](C)(C(=O)N[C@@H](CCCC)C(=O)N[C@@H](C)C(=O)N[C@@H](CC(C)C)C(=O)N[C@@H](CC(=O)O)C(=O)N[C@@H](CCCNC(=N)N)C(N)=O)NC(=O)[C@H]([C@@H](C)CC)NC(=O)[C@H](C(C)C)NC(=O)[C@H](CC(C)C)NC1=O [SP-27] (Ac-FIDEEVL[Nle][S5]LVI[S5][Nle]ALDR-NH2; staple 9-13) | 5 to 15 | ++++ (≥50: ++++)
2 | CCCC[C@H](NC(=O)[C@H](CC(C)C)NC(=O)[C@@H](NC(=O)[C@H](CCC(=O)O)NC(=O)[C@H](CCC(=O)O)NC(=O)[C@H](CC(=O)O)NC(=O)[C@@H](NC(=O)[C@H](Cc1ccccc1)NC(C)=O)[C@@H](C)CC)C(C)C)C(=O)N[C@@]1(C)CCCC=CCCC[C@@](C)(C(=O)N[C@@H](CCCC)C(=O)N[C@@H](CO)C(=O)N[C@@H](CC(C)C)C(=O)N[C@@H](CC(=O)O)C(=O)N[C@@H](CCCNC(=N)N)C(=O)N[C@H](C(N)=O)[C@@H](C)CC)NC(=O)[C@H]([C@@H](C)CC)NC(=O)[C@H](C(C)C)NC(=O)[C@H](CC(C)C)NC1=O [SP-55] (Ac-FIDEEVL[Nle][S5]LVI[S5][Nle]SLDRI-NH2; staple 9-13) | 5 to 15 | ++++ (≥50: ++++)
3 | CCCC[C@H](NC(=O)[C@H](CC(C)C)NC(=O)[C@@H](NC(=O)[C@H](CCC(=O)O)NC(=O)[C@H](CCC(=O)O)NC(=O)[C@H](CC(=O)O)NC(=O)[C@@H](NC(=O)[C@H](Cc1ccccc1)NC(C)=O)[C@@H](C)CC)C(C)C)C(=O)N[C@@]1(C)CCCC=CCCC[C@@](C)(C(=O)N[C@@H](CCCC)C(=O)N[C@@H](C)C(=O)N[C@@H](CC(C)C)C(=O)N[C@@H](CC(=O)O)C(=O)N[C@@H](CCCNC(=N)N)C(=O)N[C@@H](C)C(N)=O)NC(=O)[C@H]([C@@H](C)CC)NC(=O)[C@H](C(C)C)NC(=O)[C@H](CC(C)C)NC1=O [SP-25] (Ac-FIDEEVL[Nle][S5]LVI[S5][Nle]ALDRA-NH2; staple 9-13) | 5 to 15 | +++ (≤25 but <50: +++)
4 | CCCC[C@H](NC(=O)[C@H](CC(C)C)NC(=O)[C@@H](NC(=O)[C@H](CCC(=O)O)NC(=O)[C@H](CCC(=O)O)NC(=O)[C@H](CC(=O)O)NC(=O)[C@@H](NC(=O)[C@H](CN)NC(C)=O)[C@@H](C)CC)C(C)C)C(=O)N[C@@]1(C)CCCC=CCCC[C@@](C)(C(=O)N[C@@H](CCCC)C(=O)N[C@@H](C)C(=O)N[C@@H](CC(C)C)C(=O)N[C@@H](CC(=O)O)C(=O)N[C@@H](CCCNC(=N)N)C(=O)N[C@H](C(N)=O)[C@@H](C)CC)NC(=O)[C@H]([C@@H](C)CC)NC(=O)[C@H](C(C)C)NC(=O)[C@H](CC(C)C)NC1=O [SP-61] (Ac-[Dap]IDEEVL[Nle][S5]LVI[S5][Nle]ALDRI-NH2; staple 9-13) | > 30 | + (<10: +)
5 | CCCC[C@H](NC(=O)[C@H](CCC(=O)O)NC(=O)[C@@H](NC(=O)[C@@H](NC(=O)[C@H](CC(C)C)NC(=O)[C@]1(C)CCCC=CCCC[C@](C)(NC(=O)[C@H](CCC(=O)O)NC(=O)[C@H](CC(=O)O)NC(=O)[C@@H](NC(=O)[C@H](Cc2ccccc2)NC(C)=O)[C@@H](C)CC)C(=O)N[C@@H](C(C)C)C(=O)N[C@@H](CC(C)C)C(=O)N[C@@H](CCCC)C(=O)N1)C(C)C)[C@@H](C)CC)C(=O)N[C@@H](C)C(=O)N[C@@H](CC(C)C)C(=O)N[C@@H](CC(=O)O)C(=O)N[C@@H](CCCNC(=N)N)C(=O)N[C@H](C(=O)N[C@@H](CCCCN)C(=O)N[C@@H](CCC(=O)O)C(=O)N[C@@H](CC(C)C)C(=O)N1CCC[C@H]1C(=O)N[C@@H](CCC(=O)O)C(=O)N[C@@H](CC(C)C)C(=O)N[C@@H](Cc1c[nH]c2ccccc12)C(=O)N[C@@H](CC(C)C)C(N)=O)[C@@H](C)CC [SP-106] (Ac-FIDE[S5]VL[Nle][S5]LVIE[Nle]ALDRIKELPELWL-NH2; staple 5-9) | > 30 | 
6 | CCCC[C@H](NC(=O)[C@H](CC(C)C)NC(=O)[C@@H](NC(=O)[C@H](CCC(=O)O)NC(=O)[C@H](CCC(=O)O)NC(=O)[C@H](CC(=O)O)NC(=O)[C@@H](NC(=O)[C@H](Cc1ccccc1)NC(C)=O)[C@@H](C)CC)C(C)C)C(=O)N[C@@]1(C)CCCC=CCCC[C@@](C)(C(=O)N[C@@H](CCCC)C(=O)N[C@@H](C)C(=O)N[C@@H](CC(C)C)C(=O)N[C@@H](CC(=O)O)C(=O)N[C@@H](CCCNC(=N)N)C(=O)N[C@H](C(N)=O)[C@@H](C)CC)NC(=O)[C@H]([C@@H](C)CC)NC(=O)[C@H](C(C)C)NC(=O)[C@H](CC(=O)O)NC1=O [SP-35] (Ac-FIDEEVL[Nle][S5]DVI[S5][Nle]ALDRI-NH2; staple 9-13) | > 30 | + (<10: +)

More lines, main results first:

Row | EC50 [µM] | Structure (SMILES) | 18 h Avg % max inhibition at top conc (HIF Rptr-24 hrs normoxia) (μM)
7 | 5 to 15 | CCCC[C@H](NC(=O)[C@H](CC(C)C)NC(=O)[C@@H](NC(=O)[C@H](CCC(=O)O)NC(=O)[C@H](CCC(=O)O)NC(=O)[C@H](CC(=O)O)NC(=O)[C@@H](NC(=O)[C@H](Cc1ccccc1)NC(C)=O)[C@@H](C)CC)C(C)C)C(=O)N[C@@]1(C)CCCC=CCCC[C@@](C)(C(=O)N[C@@H](CCCC)C(=O)N[C@@H](C)C(=O)N[C@@H](C)C(=O)N[C@@H](CC(=O)O)C(=O)N[C@@H](CCCNC(=N)N)C(=O)N[C@H](C(N)=O)[C@@H](C)CC)NC(=O)[C@H]([C@@H](C)CC)NC(=O)[C@H](C(C)C)NC(=O)[C@H](CC(C)C)NC1=O [SP-22] (Ac-FIDEEVL[Nle][S5]LVI[S5][Nle]AADRI-NH2; staple 9-13) | ++++ (≥50: ++++)
8 | > 30 | CCCC[C@H](NC(=O)[C@H](CC(C)C)NC(=O)[C@@H](NC(=O)[C@H](CCC(=O)O)NC(=O)[C@H](CCC(=O)O)NC(=O)[C@H](CC(=O)O)NC(=O)[C@H](CCC(=O)O)NC(=O)[C@H](Cc1ccccc1)NC(C)=O)C(C)C)C(=O)N[C@@]1(C)CCCC=CCCC[C@@](C)(C(=O)N[C@@H](CCCC)C(=O)N[C@@H](C)C(=O)N[C@@H](CC(C)C)C(=O)N[C@@H](CC(=O)O)C(=O)N[C@@H](CCCNC(=N)N)C(=O)N[C@H](C(N)=O)[C@@H](C)CC)NC(=O)[C@H]([C@@H](C)CC)NC(=O)[C@H](C(C)C)NC(=O)[C@H](CC(C)C)NC1=O [SP-31] (Ac-FEDEEVL[Nle][S5]LVI[S5][Nle]ALDRI-NH2; staple 9-13) | + (<10: +)
9 | > 30 | CCCC[C@H](NC(=O)[C@H](CC(C)C)NC(=O)[C@@H](NC(=O)[C@H](CCC(=O)O)NC(=O)[C@H](CCC(=O)O)NC(=O)[C@H](CC(=O)O)NC(=O)[C@@H](NC(=O)[C@H](Cc1ccccc1)NC(C)=O)[C@@H](C)CC)C(C)C)C(=O)N[C@@]1(C)CCCC=CCCC[C@@](C)(C(=O)N[C@@H](CN)C(=O)N[C@@H](C)C(=O)N[C@@H](CC(C)C)C(=O)N[C@@H](CC(=O)O)C(=O)N[C@@H](CCCNC(=N)N)C(=O)N[C@H](C(N)=O)[C@@H](C)CC)NC(=O)[C@H]([C@@H](C)CC)NC(=O)[C@H](C(C)C)NC(=O)[C@H](CC(C)C)NC1=O [SP-66] (Ac-FIDEEVL[Nle][S5]LVI[S5][Dap]ALDRI-NH2; staple 9-13) | ++ (≤10 but <25: ++)
